pIC50: −log10 of the molar value.
Target: ROCK2 (Homo sapiens (Human), UniProt O75116)
Assay: biochemical
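Also: rho kinase enzyme reaction halted with EDTA, phospho- and non-phospho peptide separated for read-out, kinase activity inhibition derived across a dose-response series, DMSO under 2%.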

Sequence of ROCK2 (O75116 whole entry, species assumed): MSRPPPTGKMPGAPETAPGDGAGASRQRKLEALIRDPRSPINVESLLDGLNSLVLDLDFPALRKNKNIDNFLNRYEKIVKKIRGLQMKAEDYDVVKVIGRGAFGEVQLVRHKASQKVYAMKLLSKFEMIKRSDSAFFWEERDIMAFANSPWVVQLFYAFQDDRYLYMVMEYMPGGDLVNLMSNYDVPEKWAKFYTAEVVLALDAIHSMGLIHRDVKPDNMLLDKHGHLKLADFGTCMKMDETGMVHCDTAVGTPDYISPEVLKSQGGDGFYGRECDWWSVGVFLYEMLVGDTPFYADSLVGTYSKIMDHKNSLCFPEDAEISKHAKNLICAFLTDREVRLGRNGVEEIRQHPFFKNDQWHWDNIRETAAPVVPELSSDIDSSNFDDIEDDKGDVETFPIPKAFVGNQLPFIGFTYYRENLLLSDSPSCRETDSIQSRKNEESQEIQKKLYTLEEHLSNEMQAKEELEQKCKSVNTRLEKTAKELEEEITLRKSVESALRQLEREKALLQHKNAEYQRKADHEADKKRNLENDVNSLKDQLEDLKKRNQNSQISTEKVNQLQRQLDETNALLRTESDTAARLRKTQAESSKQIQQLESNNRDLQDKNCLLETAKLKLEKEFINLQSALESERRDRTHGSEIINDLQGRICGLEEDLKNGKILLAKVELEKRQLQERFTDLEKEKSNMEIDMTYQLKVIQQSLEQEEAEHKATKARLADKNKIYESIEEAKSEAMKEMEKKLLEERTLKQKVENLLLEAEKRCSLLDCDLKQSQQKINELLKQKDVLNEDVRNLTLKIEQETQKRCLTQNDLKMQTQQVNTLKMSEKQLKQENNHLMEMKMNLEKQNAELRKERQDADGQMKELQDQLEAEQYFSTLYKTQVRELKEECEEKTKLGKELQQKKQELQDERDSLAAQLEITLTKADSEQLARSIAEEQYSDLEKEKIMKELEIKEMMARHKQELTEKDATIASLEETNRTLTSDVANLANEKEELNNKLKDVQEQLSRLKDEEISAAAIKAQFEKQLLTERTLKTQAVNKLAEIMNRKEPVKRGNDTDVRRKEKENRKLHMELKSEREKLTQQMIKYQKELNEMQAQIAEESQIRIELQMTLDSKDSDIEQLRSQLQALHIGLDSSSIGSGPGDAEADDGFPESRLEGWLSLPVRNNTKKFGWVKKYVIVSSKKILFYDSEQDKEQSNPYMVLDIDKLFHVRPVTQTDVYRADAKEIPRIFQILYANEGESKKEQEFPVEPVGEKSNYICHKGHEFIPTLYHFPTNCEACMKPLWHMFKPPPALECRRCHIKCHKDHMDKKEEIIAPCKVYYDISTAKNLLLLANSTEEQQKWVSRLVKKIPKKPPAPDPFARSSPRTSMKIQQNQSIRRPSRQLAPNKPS

| SMILES | pIC50 |
| --- | --- |
| CCOc1cccc(NC2CCN(c3ccc(-c4cn[nH]c4)cc3)C2=O)c1 (stereo not drawn) [Example 6, 1-(4-(1H-pyrazol-4-yl)phenyl)-3-((3-ethoxyphenyl)amino)pyrrolidin-2-one] | > 8.00 |
| COc1ccc(NC2CCN(c3ccc(-c4cn[nH]c4)c(OC)c3)C2=O)cc1F (single isomer, unassigned) [Example 141, 3-((3-fluoro-4-methoxyphenyl)amino)-1-(3-methoxy-4-(1H-pyrazol-4-yl)phenyl) pyrrolidin-2-one] | 5.66 to 7.00 |
| COc1cc(F)cc(NC2CCN(c3ccc(-c4cn[nH]c4)cc3)C2=O)c1 (stereo not drawn) [Example 3, 1-(4-(1H-pyrazol-4-yl)phenyl)-3-((3-fluoro-5-methoxyphenyl)amino)pyrrolidin-2-one] | > 8.00 |
| COc1nc(N2CCC(N3CCc4cccnc43)C2=O)ccc1-c1cn[nH]c1 (racemic) [Example 281, 3-(2,3-dihydro-1H-pyrrolo[2,3-b]pyridin-1-yl)-1-(6-methoxy-5-(1H-pyrazol-4-yl)pyridin-2-yl)pyrrolidin-2-one] | 7.00 to 8.00 |
| O=C1C(Nc2nc3ccccc3[nH]2)CCN1c1ccc(-c2cn[nH]c2)cc1 (single isomer, unassigned) [Example 56, 3-((1H-benzo[d]imidazol-2-yl)amino)-1-(4-(1H-pyrazol-4-yl)phenyl)pyrrolidin-2-one] | 7.00 to 8.00 |
| COc1c(F)cccc1NC1CCN(c2ccc(-c3cn[nH]c3)c(OC(F)F)c2)C1=O (single isomer, unassigned) [Example 33, 1-(3-(difluoromethoxy)-4-(1H-pyrazol-4-yl)phenyl)-3-((3-fluoro-2-methoxyphenl)amino)pyrrolidin-2-one] | 7.00 to 8.00 |
| COc1cccc(NC2CCN(c3cnc(-c4cn[nH]c4)c(OC)n3)C2=O)c1 (stereo not drawn) [Example 134, 1-(6-Methoxy-5-(1H-pyrazol-4-yl)pyrazin-2-yl)-3-((3-methoxyphenyl)amino) pyrrolidin-2-one] | > 8.00 |
| COc1cc(NC2CCN(c3cc(F)c(-c4cn[nH]c4)cc3F)C2=O)ccc1F (single isomer, unassigned) [Example 349, 1-(2,5-difluoro-4-(1H-pyrazol-4-yl)phenyl)-3-((4-fluoro-3-methoxyphenyl)amino)pyrrolidin-2-one] | 7.00 to 8.00 |
| O=C1C(Nc2ccccc2)CCN1c1ccc(-c2cn[nH]c2)c(F)c1 (single isomer, unassigned) [Example 43, 1-(3-fluoro-4-(1H-pyrazol-4-yl)phenyl)-3-(phenylamino)pyrrolidin-2-one] | > 8.00 |
| COc1cccc(NC2CCN(c3ccc(-c4cn[nH]c4)c(C)n3)C2=O)c1 (single isomer, unassigned) [Example 188, 3-((3-methoxyphenyl)amino)-1-(6-methyl-5-(1H-pyrazol-4-yl)pyridin-2-yl)pyrrolidin-2-one] | 7.00 to 8.00 |
| COc1cccc(NC2CCN(c3ccc(-c4cn[nH]c4)c(C)n3)C2=O)c1 (single isomer, unassigned) [Example 189, 3-((3-methoxyphenyl)amino)-1-(6-methyl-5-(1H-pyrazol-4-yl)pyridin-2-yl)pyrrolidin-2-one] | > 8.00 |
| COc1cccc(NC2CCN(c3ccc(-c4cn[nH]c4)cc3F)C2=O)c1 (single isomer, unassigned) [Example 328, 1-(2-fluoro-4-(1H-pyrazol-4-yl)phenyl)-3-((3-methoxyphenyl)amino)pyrrolidin-2-one] | 7.00 to 8.00 |
| COc1cccc(NC2CCN(c3ccc(-c4ccnc(N)c4)cc3)C2=O)c1 (single isomer, unassigned) [Example 77, 1-(4-(2-aminopyridin-4-yl)phenyl)-3-((3-methoxyphenyl)amino)pyrrolidin-2-one] | 7.00 to 8.00 |
| COc1cc(N2CCC(Nc3cccc(OC(F)F)c3)C2=O)ccc1-c1cn[nH]c1 (stereo not drawn) [Example 66, 3-((3-(Difluoromethoxy)phenyl)amino)-1-(3-methoxy-4-(1H-pyrazol-4-yl)phenyl)pyrrolidin-2-one] | > 8.00 |
| COc1nc(N2CCC(N3CCOc4ccccc43)C2=O)ccc1-c1cn[nH]c1 (single isomer, unassigned) [Example 229, 3-(2H-benzo[b][1,4]oxazin-4(3H)-yl)-1-(6-methoxy-5-(1H-pyrazol-4-yl)pyridin-2-yl)pyrrolidin-2-one] | 7.00 to 8.00 |
| COc1nc(N2CCC(Nc3ccccc3F)C2=O)ccc1-c1cn[nH]c1 (racemic) [Example 224, 3-((2-fluorophenyl)amino)-1-(6-methoxy-5-(1H-pyrazol-4-yl)pyridin-2-yl)pyrrolidin-2-one] | > 8.00 |
| COc1cc(F)cc(NC2CCN(c3ccc(-c4cn[nH]c4)c(C#N)c3)C2=O)c1 (single isomer, unassigned) [Example 374, 5-(3-((3-fluoro-5-methoxyphenyl)amino)-2-oxopyrrolidin-1-yl)-2-(1H-pyrazol-4-yl)benzonitrile] | 5.66 to 7.00 |
| CCc1nc(N2CCC(Nc3cc(F)cc(OC)c3)C2=O)ccc1-c1cn[nH]c1 (single isomer, unassigned) [Example 316, 1-(6-ethyl-5-(1H-pyrazol-4-yl)pyridin-2-yl)-3-((3-fluoro-5-methoxyphenyl)amino) pyrrolidin-2-one] | > 8.00 |

| SMILES | pIC50 |
| --- | --- |
| COc1cc(F)cc(NC2CCN(c3ccc(-c4cn[nH]c4)c(C(F)(F)F)c3)C2=O)c1 (single isomer, unassigned) [Example 370, 1-(4-(1H-pyrazol-4-yl)-3-(trifluoromethyl)phenyl)-3-((3-fluoro-5-methoxyphenyl)amino)pyrrolidin-2-one] | 7.00 to 8.00 |
| COc1cccc(NC2CCN(c3ccc(-c4cn[nH]c4)c(C(F)F)c3)C2=O)c1 (single isomer, unassigned) [Example 175, 1-(3-(difluoromethyl)-4-(1H-pyrazol-4-yl)phenyl)-3-((3-methoxyphenyl)amino) pyrrolidin-2-one] | 5.66 to 7.00 |
| COc1cccc(NC2CCN(c3ccc(-c4ccnc(N)n4)cc3)C2=O)c1 (single isomer, unassigned) [Example 78, 1-(4-(2-aminopyrimidin-4-yl)phenyl)-3-((3-methoxyphenyl)amino)pyrrolidin-2-one] | 7.00 to 8.00 |
| COc1cccc(NC2CCN(c3ccc(-c4cn[nH]c4)c(C#N)c3)C2=O)c1 (single isomer, unassigned) [Example 378, 5-(3-((3-methoxyphenyl)amino)-2-oxopyrrolidin-1-yl)-2-(1H-pyrazol-4-yl)benzonitrile] | 7.00 to 8.00 |
| COc1cccc(NC2CCN(c3ccc(-c4cn[nH]c4)cc3)C2=O)c1C (single isomer, unassigned) [Example 325, 1-(4-(1H-pyrazol-4-yl)phenyl)-3-((3-methoxy-2-methylphenyl)amino) pyrrolidin-2-one] | 7.00 to 8.00 |
| CCOc1cccc(NC2CCN(c3ccc(-c4cn[nH]c4)c(OC)c3)C2=O)c1 (single isomer, unassigned) [Example 250, 3-((3-ethoxyphenyl)amino)-1-(3-methoxy-4-(1H-pyrazol-4-yl)phenyl)pyrrolidin-2-one] | > 8.00 |
| COc1nc(N2CCC(N(C)C3CCN(C)CC3)C2=O)ccc1-c1cn[nH]c1 (racemic) [Example 279, 1-(6-methoxy-5-(1H-pyrazol-4-yl)pyridin-2-yl)-3-(methyl(1-methylpiperidin-4-yl)amino)pyrrolidin-2-one] | 5.66 to 7.00 |
| COc1cccc(N[C@@H]2CCN(c3ccc(-c4cn[nH]c4)cc3)C2=O)c1OC [Example 385, (R)-1-(4-(1H-pyrazol-4-yl)phenyl)-3-((2,3-dimethoxyphenyl)amino)pyrrolidin-2-one] | 5.66 to 7.00 |
| O=C1C(Oc2ccccc2)CCN1c1ccc(-c2cn[nH]c2)cc1 (stereo not drawn) [Example 64, 1-(4-(1H-pyrazol-4-yl)phenyl)-3-phenoxypyrrolidin-2-one] | 7.00 to 8.00 |
| COc1cc(F)cc(OC2CCN(c3ccc(-c4cn[nH]c4)c(OC)n3)C2=O)c1 (single isomer, unassigned) [Example 172, 3-(3-fluoro-5-methoxyphenoxy)-1-(6-methoxy-5-(1H-pyrazol-4-yl)pyridin-2-yl)pyrrolidin-2-one] | 7.00 to 8.00 |
| COc1cccc(NC2CCN(c3ccc(-c4cn[nH]c4)c(CO)c3)C2=O)c1 (racemic) [Example 187, 1-(3-(hydroxymethyl)-4-(1H-pyrazol-4-yl)phenyl)-3-((3-methoxyphenyl)amino) pyrrolidin-2-one] | 5.66 to 7.00 |
| COc1nc(N2CCC(Nc3cccc(S(N)(=O)=O)c3)C2=O)ccc1-c1cn[nH]c1 (racemic) [Example 268, 3-((1-(6-methoxy-5-(1H-pyrazol-4-yl)pyridin-2-yl)-2-oxopyrrolidin-3-yl)amino)benzenesulfonamide] | > 8.00 |
| COc1nc(N2CCC(Nc3ccc4c(c3)CS(=O)(=O)C4)C2=O)ccc1-c1cn[nH]c1 (racemic) [Example 263, 3-((2,2-dioxido-l,3-dihydrobenzo[c]thiophen-5-yl)amino)-1-(6-methoxy-5-(1H-pyrazol-4-yl)pyridin-2-yl)pyrrolidin-2-one] | 5.66 to 7.00 |
| O=C1C(Cc2ccccc2)CCN1c1ccc(-c2cn[nH]c2)cc1 (stereo not drawn) [Example 92, 1-(4-(1H-pyrazol-4-yl)phenyl)-3-benzylpyrrolidin-2-one] | 5.66 to 7.00 |
| COc1cccc(NC2CCN(c3ccc(-c4c[nH]nc4C)c(OC)n3)C2=O)c1 (racemic) [Example 129, 1-(6-methoxy-5-(3-methyl-1H-pyrazol-4-yl)pyridin-2-yl)-3-((3-methoxyphenyl)amino)pyrrolidin-2-one] | > 8.00 |
| CCc1nc(N2CCC(Nc3cc(F)cc(OC)c3)C2=O)ccc1-c1cn[nH]c1 (single isomer, unassigned) [Example 315, 1-(6-ethyl-5-(1H-pyrazol-4-yl)pyridin-2-yl)-3-((3-fluoro-5-methoxyphenyl)amino) pyrrolidin-2-one] | 7.00 to 8.00 |
| O=C1C(Nc2ccc3c(c2)OC(F)(F)O3)CCN1c1ccc(-c2cn[nH]c2)cc1 (single isomer, unassigned) [Example 53, 1-(4-(1H-pyrazol-4-yl)phenyl)-3-((2,2-difluorobenzo[d][1,3]dioxol-5-yl)amino)pyrrolidin-2-one] | 5.66 to 7.00 |
| COc1nc(N2CCC(Nc3cccc(OC(C)C)c3)C2=O)ccc1-c1cn[nH]c1 (racemic) [Example 267, 3-((3-isopropoxyphenyl)amino)-1-(6-methoxy-5-(1H-pyrazol-4-yl)pyridin-2-yl)pyrrolidin-2-one] | 7.00 to 8.00 |

Source: patent publication US10112929B2, “Lactams as inhibitors of rock” (BRISTOL-MYERS SQUIBB COMPANY, priority 2015, dated 2018)
